How the values were obtained:
[1] = test system: circulating levels of neurotrophin-3 (NT-3); assay: Serum NT-3 sandwich ELISA, mice of post incision pain model; type: in vivo, mouse; conditions: day 4, 25 mg/kg i.p., mean±std dev, limit of detection ~40 pg/ml
Text: On day 4, after the behavioral tests from post incision pain model were completed, the mice's sera were collected and analyzed for circulating levels of neurotrophin-3 (NT-3) using a sandwich ELISA. The limit of detection (˜40 pg/ml) was defined as two standard deviations (2σ) above background with a minimum of five NT-3 standards to define the response to concentration curve.

[2] = molecular target: T1, human NT-3 binding to human TrkC-hFc (Homo sapiens, UniProt P20783); assay: BIACORE, NT-3 binding to TrkC-hFc surface in presence of antibody; conditions: 20 nM NT-3 + 500 nM sample; normalized to IgG1 control
T1 sequence (P20783 139-257): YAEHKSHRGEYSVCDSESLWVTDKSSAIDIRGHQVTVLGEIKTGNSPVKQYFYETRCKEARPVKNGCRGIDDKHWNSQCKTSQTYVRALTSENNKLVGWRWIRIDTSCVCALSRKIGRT
Procedure: (§1) Human TrkA-hFc (9300 RU), human TrkB-hFc (6000 RU), human TrkC-hFc (9100 RU) and human p75-hFc (7500 RU) were covalently coupled to BIACORE® CM5 chip surfaces by amine-coupling procedure. […] The binding mixture was first incubated at room temperature to reach equilibrium (about 1 hr) and then was injected over the above TrkA-hFc, TrkB-hFc, TrkC-hFc and p75-hFc surfaces. The level of human NT-3 binding in each sample was measured. The binding RU from each sample mixture was normalized according to the RU value from the negative control sample (i.e., 20 nM human NT-3 with 500 nM AVASTIN®) and presented as % binding to Trk surfaces (Table 9).

[3] = molecular target: T2, human NT-3 binding to human TrkA-hFc (Homo sapiens, UniProt P20783); assay: BIACORE, NT-3 binding to TrkA-hFc surface in presence of antibody; conditions: 20 nM NT-3 + 500 nM sample; normalized to IgG1 control
T2 sequence (P20783 139-257): T1 sequence (P20783 139-257)
Procedure: as §1

C57BL/6 mice = assay: Post-operative incision pain model, mechanical allodynia in von Frey test; type: in vivo, mouse; conditions: Table 17
Procedure: Thermal hyperalgesia was studied in the Hargreaves' test and mechanical allodynia was tested in the von Frey test. In this latter test, mice were tested after being acclimated for 2-3 hours for 4 days in an apparatus with a wire mesh floor. The test was performed by applying, in ascending order, a series of von Frey hairs through the wire mesh onto the plantar surface of the hind paw with the incision. A response was considered positive if the paw was raised from the platform in response to application of the filament. Starting from the thinnest hair, each von Frey filament was applied up to five times until a response was observed.

[4] = molecular target: T3, human NT-3 binding to human p75-hFc (Homo sapiens, UniProt P20783); assay: BIACORE, NT-3 binding to p75-hFc surface in presence of antibody; conditions: 20 nM NT-3 + 500 nM sample; normalized to IgG1 control
T3 sequence (P20783 139-257): T1 sequence (P20783 139-257)
Procedure: as §1

[5] = molecular target: T4, human NT-3 binding to human TrkB-hFc (Homo sapiens, UniProt P20783); assay: BIACORE, NT-3 binding to TrkB-hFc surface in presence of antibody; conditions: 20 nM NT-3 + 500 nM sample; normalized to IgG1 control
T4 sequence (P20783 139-257): T1 sequence (P20783 139-257)
Procedure: as §1

C57BL/6 male mice = assay: Seltzer model of neuropathic pain, Hargreaves' test; type: in vivo, mouse
Text: Neuropathic pain. The mouse Seltzer model of neuropathic pain (Malmberg et al. (1998) Pain 76:215-222) was used with C57BL/6 male mice, in which a partial nerve injury was produced by tying a tight ligature with a 7-0 silk suture around approximately ⅓ to ½ the diameter of the sciatic nerve of one single thigh per mouse. Post-surgery, the mice were allowed to recover for at least two days and then they were studied for several weeks post-surgery for thermal hyperalgesia in the Hargreaves' test. Controls were sham-operated mice in which the sciatic nerve was exposed and elevated but not tied. Following surgery, the mice were tested at day […] and at day 7 post-surgery to confirm that the thermal hyperalgesia had developed.
Following the Seltzer surgery, mice were tested at days 5 and 7 post-surgery to confirm that the thermal hyperalgesia had developed.

[6] = molecular target: Human NGF binding to human TrkA-hFc (Homo sapiens, UniProt P01138, DEL136-138/DEL208-209); assay: BIACORE receptor blocking assay, free NGF bound to TrkA-hFc; conditions: percentage free NGF bound; NGF 10-25 nM with molar excess of antibody; NGF alone = 100%
Text: To identify blocking antibodies, a receptor blocking assay was designed using a BIACORE™ 3000 instrument. Recombinant human TrkA-hFc and human p75-hFc proteins were amine-coupled to a CM5 chip to a density of about 5000-6000 RU.

Sequence of Human NGF binding to human TrkA-hFc (P01138 with tags, fused parts or gaps DEL136-138/DEL208-209): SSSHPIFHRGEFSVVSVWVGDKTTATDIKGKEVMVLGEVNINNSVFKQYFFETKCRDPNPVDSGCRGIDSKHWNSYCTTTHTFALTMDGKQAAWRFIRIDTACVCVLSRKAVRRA

Q: With tanezumab [RN624] as the substance, how does the “Serum NT-3” value [1] read?
A: Its value is 172 ± 114 pg/mL.

Q: What about the “% binding to TrkC-hFc surface” value [2] of the same substance?
A: Its value is 8%.

Q: What about the “% binding to TrkA-hFc surface” value [3] of the same substance?
A: The value was 7%.

Q: And the “Paw Withdrawal Threshold” value (C57BL/6 mice; 25 mg/kg i.p. on day 1 post-surgery, Baseline)?
A: The value was 1.314 ± 0.137 g.

Q: What about the “Paw Withdrawal Threshold” value (C57BL/6 mice; 25 mg/kg i.p., 5 hr after treatment) of the same substance?
A: The value was 0.083 ± 0.053 g.

Q: And the “Paw Withdrawal Threshold” value (C57BL/6 mice; 25 mg/kg i.p., 22 hr after treatment)?
A: Its value is 0.610 ± 0.123 g.

Q: And the “Paw Withdrawal Threshold” value (C57BL/6 mice; 25 mg/kg i.p., 45 hr after treatment)?
A: The value was 0.909 ± 0.216 g.

Q: What about the “Paw Withdrawal Threshold” value (C57BL/6 mice; 25 mg/kg i.p., 70 hr after treatment) of the same substance?
A: The value was 1.143 ± 0.189 g.

Q: And the “Paw Withdrawal Threshold” value (C57BL/6 mice; 25 mg/kg i.p., Day 1 (post-surgery, before injection))?
A: The value was 0.010 ± 0.002 g.

Q: And the “% binding to p75-hFc surface” value [4]?
A: Its value is 19%.

Q: What about the “% binding to TrkB-hFc surface” value [5] of the same substance?
A: Its value is 8%.

Q: And the pain relief (C57BL/6 male mice; 50 mg/kg s.c. or i.p. at day 7 post-surgery, p<0.001-0.05)?
A: The pain relief was “Significant pain relief was observed”.

Q: And the “mean percent change from Hargreaves baseline” value (shortened to “mean percent change”) (C57BL/6 male mice; Table 25, 50 mg/kg s.c. at day 7, day 5 after surgery)?
A: Its value is −53.5 ± 6.3%.

Q: And the “mean percent change” value (C57BL/6 male mice; Table 25, 50 mg/kg s.c. at day 7, day 7)?
A: The value was −48.4 ± 6.2%.

Q: And the “mean percent change” value (C57BL/6 male mice; Table 25, 50 mg/kg s.c. at day 7, day 8)?
A: The value was 4.5 ± 9.0%.

Q: And the “mean percent change” value (C57BL/6 male mice; Table 25, 50 mg/kg s.c. at day 7, day 9)?
A: Its value is −15.2 ± 8.5%.

Q: What about the “mean percent change” value (C57BL/6 male mice; Table 25, 50 mg/kg s.c. at day 7, day 12) of the same substance?
A: The value was −4.2 ± 12.0%.

Q: And the “mean percent change” value (C57BL/6 male mice; Table 25, 50 mg/kg s.c. at day 7, day 15)?
A: Its value is 2.1 ± 10.9%.

Q: What about the “mean percent change” value (C57BL/6 male mice; Table 25, 50 mg/kg s.c. at day 7, day 19) of the same substance?
A: The value was −11.5 ± 12.1%.

Q: What about the “mean percent change” value (C57BL/6 male mice; Table 25, 50 mg/kg s.c. at day 7, day 22) of the same substance?
A: Its value is −5.7 ± 9.5%.

Q: And the “mean percent change” value (C57BL/6 male mice; Table 25, 50 mg/kg s.c. at day 7 post-surgery, Baseline)?
A: Its value is 0.0 ± 0.0%.

Q: And the “mean percent change” value (C57BL/6 male mice; Table 26, 50 mg/kg i.p. at day 7, day 5 after surgery)?
A: Its value is −56.6 ± 2.3%.

Q: And the “mean percent change” value (C57BL/6 male mice; Table 26, 50 mg/kg i.p. at day 7, day 7)?
A: Its value is −62.3 ± 3.4%.

Q: And the “mean percent change” value (C57BL/6 male mice; Table 26, 50 mg/kg i.p. at day 7, day 8)?
A: Its value is −3.3 ± 16.0%.

Q: And the “mean percent change” value (C57BL/6 male mice; Table 26, 50 mg/kg i.p. at day 7, day 9)?
A: The value was −18.4 ± 12.9%.

Q: What about the “mean percent change” value (C57BL/6 male mice; Table 26, 50 mg/kg i.p. at day 7, day 12) of the same substance?
A: The value was −7.0 ± 11.8%.

Q: What about the “mean percent change” value (C57BL/6 male mice; Table 26, 50 mg/kg i.p. at day 7, day 15) of the same substance?
A: The value was −16.2 ± 14.8%.

Q: What about the “mean percent change” value (C57BL/6 male mice; Table 26, 50 mg/kg i.p. at day 7 post-surgery, Baseline) of the same substance?
A: The value was 0.0 ± 0.0%.

Q: What about the “% Binding TrkA-hFc” value [6] of the same substance?
A: Its value is 10%.
